The values below come from patent US8841425B2, “Cytotoxic agents comprising new maytansinoids” (ImmunoGen, Inc., priority 2003, dated 2014).

One assay relates to SK-BR-3 cells. The assay can be described thus: In vitro cytotoxicity, clonogenic assay, SK-BR-3 cells. The format is cell-based, human. The following applies: free maytansinoid, 72 hours exposure, read-out: IC50 towards SK-Br-3 cells. The method, then: (§1) The KB (ATCC CCl-17) cell line is of human epithelial origin. The SK-BR-3 (ATCC HTB-30) cell line was established from a human breast adenocarcinoma. The human colon tumor cell lines COLO 205 (ATCC CCL-222) and HT-29 (ATCC HTB 38), the human melanoma cell line A-375 (ATCC CRL 1619), the human Burkitts lymphoma cell line Ramos (ATCC CRL-1596) and the human myeloid leukemia cell line HL-60 (ATCC CCL-240) were all obtained from ATCC, Maryland. Cell lines were grown in Dulbecco's modified Eagles Medium (DMEM, Biowhittaker, Walkersville, Md.) with L-glutamine supplemented with 10% fetal bovine serum (Hyclone, Logan, Utah) and 50 μg/mL gentamycin sulfate (Life Technologies, Rockville, Md.). Cells were maintained at 36-37.5° C. in a humidified atmosphere that contained 6% CO2.
The cytotoxicity study performed used a clonogenic assay. The test cell lines were plated into 6-well culture dishes at a constant number of 1000 cells per well. […] The cultures were then fixed and stained with 0.2% crystal violet in 10% formalin/PBS and colonies were counted. Plating efficiency of non-treated cells (medium alone) was determined by dividing the number of colonies counted by the number of cells plated. Surviving fraction of cells exposed to the drugs was determined by dividing the number of colonies in wells that were exposed to the drug by the number of colonies in the control wells.

Assay [1] deals with human melanoma cell line A-375. The assay can be described thus: In vitro cytotoxicity, clonogenic assay, A-375 cells. The assay is classed as cell-based. The following applies: for IC50: free maytansinoid, 72 hours exposure, clonogenic assay, read-out: IC50 towards A-375 cells; for fold less sensitive, antigen negative A-375 cells versus COLO 205 cells: antibody-maytansinoid conjugate. The method, then:
as §1
The cytotoxicity study performed used a clonogenic assay. The test cell lines were plated into 6-well culture dishes at a constant number of 1000 cells per well. Cells were incubated with varying concentrations (0 to 3 nM) of the various maytansinoids (free or conjugated to antibodies) for 72 hours. The medium was then aspirated from the plates and replaced with fresh medium. Cultures were allowed to grow, and form colonies, for a total of 7-10 days after plating. The cultures were then fixed and stained with 0.2% crystal violet in 10% formalin/PBS and colonies were counted. Plating efficiency of non-treated cells (medium alone) was determined by dividing the number of colonies counted by the number of cells plated. Surviving fraction of cells exposed to the drugs was determined by dividing the number of colonies in wells that were exposed to the drug by the number of colonies in the control wells.

Assay [2] relates to human nasopharyngeal carcinoma cells. The following applies: cited from earlier work.
The subject of assay [3] is L1210 mouse leukemia system. The following applies: in vivo; cited from earlier work.
The subject of assay [4] is human B-16 melanocarcinoma system. To be noted: in vivo; cited from earlier work.
Assay [5] has as its system Lewis lung carcinoma system. To be noted: in vivo; cited from earlier work.
The next assay concerns L1210 cells. The following applies: L1210 cells treated in vivo; cited from earlier work.
Assay [6] concerns human acute lymphoblastic leukemia line CEM. The following applies: in vitro; cited from earlier work.
Assay [7] relates to human HL-60 tumor xenografts. In words: In vivo efficacy of huMy9-6-DM4 against HL-60 xenografts in SCID mice (FIG. 11). Further details: species or system mouse. The protocol:
The efficacy of huMy9-6-DM4 in vivo was determined in SCID mice bearing human HL-60 tumor xenografts. HL-60 cells were injected subcutaneously and tumors were allowed to grow to an average size of 100 mm^3. Dosage is expressed as μg DM4 in the conjugate, which corresponds to an antibody dose of approximately 67 μg antibody per μg of DM4. […] The efficacy of huMy9-6-DM4 was also compared with that of huMy9-6-DM1. […] HuMy9-6-DM4 maintained the animals in complete remission (CR) for nearly sixty days, whereas animals treated with huMy9-6-DM1 relapsed after about 20 days in CR.

Assay [8] has as its system HT-29 human colon tumor xenografts. In words: In vivo efficacy against HT-29 xenografts. Further details: species or system mouse. The following applies: SCID mice, maytansinoid dose of 75 μg/kg, qd×5, intravenously. The method, then:
(§2) Five-week-old female SCID mice (20 animals) were inoculated subcutaneously in the right flank with HT-29 human colon carcinoma cells (1.5×10^6 cells/mouse) in 0.1 mL of serum-free medium. The tumors were grown for 11 days to an average size of 100 mm^3. The animals were then randomly divided into four groups (5 animals per group). The first group received huC242-DM1 conjugate (DM1 dose of 75 μg/kg, qd×5) administered intravenously. The second group received huC242-DM3 conjugate (DM3 dose of 75 μg/kg, qd×5) administered intravenously. The third group received huC242-DM4 conjugate (DM4 dose of 75 μg/kg, qd×5), while a fourth group of animals served as controls and received PBS using the same treatment schedule as in groups 1-3.
The sizes of the tumors were measured twice weekly and the tumor volumes were calculated with the formula: tumor volume=½(length×width×height). The weight of the animals was also measured twice per week. The tumors in the control group of mice grew to a size of nearly 1000 mm^3 in 35 days.

Assay [9] deals with COLO 205 human colon tumor xenografts. The assay can be described thus: In vivo efficacy against COLO 205 xenografts. The following applies: SCID mice, maytansinoid dose of 75 μg/kg, qd×5, intravenously. Further details: species or system mouse. The protocol:
as §2, with “COLO 205” for “HT-29”
The sizes of the tumors were measured twice weekly and the tumor volumes were calculated with the formula: tumor volume=½(length×width×height). The weight of the animals was also measured twice per week. The tumors in the control group of mice grew to a size of nearly 900 mm^3 in 24 days.

Assay [10] has as its system antigen positive COLO 205 cells. In words: In vitro cytotoxicity of antibody-maytansinoid conjugates, clonogenic assay, COLO 205 cells. The assay is classed as cell-based, human. To be noted: antibody-maytansinoid conjugate; read-out: IC50 towards antigen positive COLO 205 cells. The protocol: Conjugates of cell-binding agents with maytansinoid drugs of the invention can be evaluated for their ability to suppress proliferation of various unwanted cell lines in vitro (FIG. 6). For example, cell lines such as the human colon carcinoma line COLO 205, the human melanoma cell line A-375, the human myeloid leukemia cell line HL60 can be used for the assessment of cytotoxicity of these conjugates. Cells to be evaluated can be exposed to the compounds for 24 hours and the surviving fractions of cells measured in direct assays by known methods. IC50 values can then be calculated from the results of the assays.
The KB (ATCC CCl-17) cell line is of human epithelial origin. The SK-BR-3 (ATCC HTB-30) cell line was established from a human breast adenocarcinoma. […]
The cytotoxicity study performed used a clonogenic assay. […] The cultures were then fixed and stained with 0.2% crystal violet in 10% formalin/PBS and colonies were counted. Plating efficiency of non-treated cells (medium alone) was determined by dividing the number of colonies counted by the number of cells plated. Surviving fraction of cells exposed to the drugs was determined by dividing the number of colonies in wells that were exposed to the drug by the number of colonies in the control wells.

“Also recorded” adds a separate entry of the source.

As usually defined, the IC50 is the concentration at which inhibition is half-maximal.

Take `COc1cc2cc(c1Cl)N(C)C(=O)CC(OC(=O)[C@@H](C)N(C)C(=O)CCC(C)(C)SSC)C1(C)OC1C(C)C1CC(O)(NC(=O)O1)C(OC)/C=C/C=C(\C)C2` (some centres unmarked) [4e, N^2′-deacetyl-N^2′-(4-methyl-4-methyldithio-1-oxopentyl)maytansine]: the IC50 in the assay on SK-BR-3 cells is 0.009 nM; in assay [1], 0.032 nM.
The matching figures for `COc1cc2cc(c1Cl)N(C)C(=O)C[C@H](OC(=O)[C@H](C)N(C)C(=O)CCC(C)SSC)[C@]1(C)O[C@H]1[C@H](C)[C@@H]1C[C@@](O)(NC(=O)O1)[C@H](OC)/C=C/C=C(\C)C2` (some centres unmarked) [4c, N^2′-deacetyl-N^2′-(4-methyldithio-1-oxopentyl)maytansine]: 0.007 nM and 0.015 nM.
For `COc1cc2cc(c1Cl)N(C)C(=O)C[C@H](OC(=O)[C@H](C)N(C)C(C)=O)[C@]1(C)O[C@H]1[C@H](C)[C@@H]1C[C@@](O)(NC(=O)O1)[C@H](OC)/C=C/C=C(\C)C2` [maytansine, Maytansine], in [2], the “inhibition of in vitro growth” value is “active inhibitor”. The inhibitory activity entry in assay [3], in assay [4] and in [5] was “significant inhibitory activity” throughout. Besides, the “cells accumulating in mitosis” value in the assay with L1210 cells is given as 67%. Further, the “inhibitory concentration, as low as” value in [6] is ≥ 10^−7 μg/ml.

B1: huMy9-6-DM1: huMy9-6 conjugate of a previously described maytansinoid (DM1) (conjugate, chains of the INN, looked up)
VH: QVQLVESGGGVVQPGRSLRLSCAASGFTFSSFGMHWVRQAPGKGLEWVAYISSGSFTIYYADSVKGRFTISRDNSKNTLYLQMNSLRAEDTAVYYCARMRKGYAMDYWGQGTLVTVSS
VL: DVVMTQSPLSLPVTLGQPASISCRSSQIIIHSDGNTYLEWFQQRPGQSPRRLIYKVSNRFSGVPDRFSGSGSGTDFTLKISRVEAEDVGVYYCFQGSHVPHTFGQGTKVEIK
modifications: DM1 maytansinoid conjugate
B1: the “time in complete remission (CR)” value in assay [7] (SCID mice, i.v. once a day for 5 days) was “about 20 days”. Also, the tumor growth delay result in assay [7] (subcutaneous HL-60 xenograft, equivalent dose, FIG. 11) is “about 48 days”.

B2: huC242-DM3: huC242 antibody linked to DM3 (4a), on the average 3.2-3.5 DM3 molecules per antibody molecule (conjugate, chains of the INN, looked up)
VH: QVQLVQSGAEVKKPGETVKISCKASDYTFTYYGMNWVKQAPGQGLKWMGWIDTTTGEPTYAQKFQGRIAFSLETSASTAYLQIKSLKSEDTATYFCARRGPYNWYFDVWGQGTTVTVSS
VL: DIVMTQSPLSVPVTPGEPVSISCRSSKSLLHSNGNTYLYWFLQRPGQSPQLLIYRMSNLVSGVPDRFSGSGSGTAFTLRISRVEAEDVGVYYCLQHLEYPFTFGPGTKLELK
modifications: DM3 maytansinoid conjugate
notes: huC242 antibody linked to DM3 (4a), on the average 3.2-3.5 DM3 molecules per antibody molecule
Turning to B2, the tumor growth delay in assay [8] is given as 28 days. For the same molecule, in [1], the “fold less sensitive, antigen negative A-375 cells versus COLO 205 cells” value was “about 500 fold”. Moreover, the “complete tumor regression lasting” value in assay [9] is listed as 45 days. Further, the half-maximal inhibitory concentration (IC50) in assay [10] came to 0.013 nM.

B3: huC242-DM4: huC242 antibody linked to DM4 (4b), on the average 3.2-3.5 DM4 molecules per antibody molecule (conjugate, chains of the INN, looked up)
VH: B2 VH
VL: B2 VL
modifications: DM4 maytansinoid conjugate
notes: huC242 antibody linked to DM4 (4b), on the average 3.2-3.5 DM4 molecules per antibody molecule
The molecule B3 registered a tumor growth delay in [8] of 36 days. For the same molecule, the “fold less sensitive, antigen negative A-375 cells versus COLO 205 cells” value in assay [1] is recorded as “about 500 fold”. Also, the “tumor response (regression, cures)” value in assay [9] is recorded as “cures of all the treated mice; also recorded: cures of all the treated animals”. The IC50 in [10] worked out at 0.011 nM.
